Tests used:
Format in all cases: cell-based
Conditions in all cases: MTS assay, 72 hours
[1] = biological target: T1, wild-type EGFR transformed Ba/F3 cells (Homo sapiens, UniProt P00533); assay: Proliferation inhibition assay, wild-type EGFR transformed Ba/F3 cells
T1 construct: expressed in transfected cells; host or cells: Ba/F3
Procedure: (§1) Cell growth inhibition can be assessed by MTS assay or by Cell Titer Glo Luminescent Cell viability assay (Promega®). Cells are seeded and grow in culture plates before they are exposed to representative compounds of the application for various duration. The viability of the cells are then assessed. […] The growth curves can be fitted using a nonlinear regression model with sigmoidal dose response.
(§2) Cell growth inhibition was assessed by MTS assay for Ba/F3, DFCI58-229, and DFCI127c cells, or by Cell Titer Glo Luminescent Cell viability assay (Promega®) for DFC1362JC cells, 3000 Ba/F3 cells were seeded for per well in 96-well plates, and were exposed to representative compounds of the application (3.3 nM to 10 μM) for 72 hours. For DFCI58-229, DFCI127c, and DFC1362JC cells, 5000 cells were seeded per well. All experimental points included 6 to 12 wells. […] The growth curves were fitted using a nonlinear regression model with sigmoidal dose response.
(§3) Activities of representative compounds of the present application in inhibiting EGFR and HER2 were tested by MTS assay (for Ba/F3 cell, DFCI58-229 cell, and DFCI127c cells) or by CellTiter-Glot luminescent cell viability assay (for DFCI362JC cells). For assays with Ba/F3 cells, 3000 cells were seeded for per well in 96-well plates and were exposed to indicated compounds with a concentration of 3.3 to 10 μM for 72 hours. For assays with DFCI58-229 cell, DFCI127c cell, or DFCI362JC cell, 5000 cells were seeded per well in 96-well plates and were exposed to indicated compounds with a concentration of 3.3 to 10 μM for 72 hours.

[2] = biological target: T2, EGFR InsGY (D770delinsGY) transformed Ba/F3 cells (Homo sapiens, UniProt P00533, D770Y/INS769G); assay: Proliferation inhibition assay, EGFR InsGY transformed Ba/F3 cells
T2 construct: expressed in transfected cells; host or cells: Ba/F3
Procedure: as §1, §2, §3

[3] = biological target: T3, EGFR InsSVD (D770_N771insSVD) transformed Ba/F3 cells (Homo sapiens, UniProt P00533, INS770SVD); assay: Proliferation inhibition assay, EGFR InsSVD transformed Ba/F3 cells
T3 construct: expressed in transfected cells; host or cells: Ba/F3
Procedure: as §1, §2, §3

[4] = biological target: T4, EGFR InsH transformed Ba/F3 cells (Homo sapiens, UniProt P00533, DUP773-773); assay: Proliferation inhibition assay, EGFR InsH transformed Ba/F3 cells
T4 construct: expressed in transfected cells; host or cells: Ba/F3
Procedure: as §1, §2, §3

[5] = biological target: T5, wild-type HER2 transformed Ba/F3 cells (Homo sapiens, UniProt P04626); assay: Proliferation inhibition assay, wild-type HER2 transformed Ba/F3 cells
T5 construct: expressed in transfected cells; host or cells: Ba/F3
Procedure: as §1, §2, §3

[6] = biological target: T6, HER2 InsYVMA (A775_G776insYVMA) transformed Ba/F3 cells (Homo sapiens, UniProt P04626, INS775YVMA); assay: Proliferation inhibition assay, HER2 InsYVMA transformed Ba/F3 cells
T6 construct: expressed in transfected cells; host or cells: Ba/F3
Procedure: as §1, §2, §3

[7] = biological target: T7, HER2 InsWLV transformed Ba/F3 cells (Homo sapiens, UniProt P04626, INS773WL/M774V); assay: Proliferation inhibition assay, HER2 InsWLV transformed Ba/F3 cells
T7 construct: expressed in transfected cells; host or cells: Ba/F3
Procedure: as §1, §2, §3

T1 sequence (P00533 25-1210): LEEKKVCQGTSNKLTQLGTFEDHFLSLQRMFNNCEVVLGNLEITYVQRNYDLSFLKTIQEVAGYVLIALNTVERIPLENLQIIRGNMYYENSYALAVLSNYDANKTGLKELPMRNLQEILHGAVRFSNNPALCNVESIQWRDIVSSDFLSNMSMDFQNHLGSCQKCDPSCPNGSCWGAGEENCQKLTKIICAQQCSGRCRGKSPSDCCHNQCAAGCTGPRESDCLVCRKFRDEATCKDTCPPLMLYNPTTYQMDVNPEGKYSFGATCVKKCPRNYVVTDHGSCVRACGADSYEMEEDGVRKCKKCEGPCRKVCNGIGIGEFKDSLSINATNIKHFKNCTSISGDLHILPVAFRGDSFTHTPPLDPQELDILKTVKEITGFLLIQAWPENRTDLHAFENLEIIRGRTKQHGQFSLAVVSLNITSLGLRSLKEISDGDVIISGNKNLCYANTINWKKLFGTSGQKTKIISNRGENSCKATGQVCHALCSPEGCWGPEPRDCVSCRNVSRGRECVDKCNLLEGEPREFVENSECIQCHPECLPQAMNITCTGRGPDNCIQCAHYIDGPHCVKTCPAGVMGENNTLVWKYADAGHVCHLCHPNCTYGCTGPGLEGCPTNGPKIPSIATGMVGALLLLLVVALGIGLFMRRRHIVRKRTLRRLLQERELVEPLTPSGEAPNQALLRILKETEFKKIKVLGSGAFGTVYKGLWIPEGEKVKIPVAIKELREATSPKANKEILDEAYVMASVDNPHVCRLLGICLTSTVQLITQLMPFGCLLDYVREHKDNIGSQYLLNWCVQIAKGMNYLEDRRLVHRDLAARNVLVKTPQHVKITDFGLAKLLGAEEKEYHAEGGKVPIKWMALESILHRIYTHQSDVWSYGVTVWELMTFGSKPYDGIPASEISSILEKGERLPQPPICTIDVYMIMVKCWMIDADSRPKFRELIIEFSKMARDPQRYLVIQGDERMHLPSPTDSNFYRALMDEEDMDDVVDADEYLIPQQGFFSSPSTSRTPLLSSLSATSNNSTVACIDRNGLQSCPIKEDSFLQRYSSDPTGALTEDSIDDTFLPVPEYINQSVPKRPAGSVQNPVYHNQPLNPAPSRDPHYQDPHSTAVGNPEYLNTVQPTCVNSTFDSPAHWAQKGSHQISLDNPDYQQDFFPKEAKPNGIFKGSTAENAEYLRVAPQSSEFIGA
T4 sequence (P00533 with tags, fused parts or gaps DUP773-773): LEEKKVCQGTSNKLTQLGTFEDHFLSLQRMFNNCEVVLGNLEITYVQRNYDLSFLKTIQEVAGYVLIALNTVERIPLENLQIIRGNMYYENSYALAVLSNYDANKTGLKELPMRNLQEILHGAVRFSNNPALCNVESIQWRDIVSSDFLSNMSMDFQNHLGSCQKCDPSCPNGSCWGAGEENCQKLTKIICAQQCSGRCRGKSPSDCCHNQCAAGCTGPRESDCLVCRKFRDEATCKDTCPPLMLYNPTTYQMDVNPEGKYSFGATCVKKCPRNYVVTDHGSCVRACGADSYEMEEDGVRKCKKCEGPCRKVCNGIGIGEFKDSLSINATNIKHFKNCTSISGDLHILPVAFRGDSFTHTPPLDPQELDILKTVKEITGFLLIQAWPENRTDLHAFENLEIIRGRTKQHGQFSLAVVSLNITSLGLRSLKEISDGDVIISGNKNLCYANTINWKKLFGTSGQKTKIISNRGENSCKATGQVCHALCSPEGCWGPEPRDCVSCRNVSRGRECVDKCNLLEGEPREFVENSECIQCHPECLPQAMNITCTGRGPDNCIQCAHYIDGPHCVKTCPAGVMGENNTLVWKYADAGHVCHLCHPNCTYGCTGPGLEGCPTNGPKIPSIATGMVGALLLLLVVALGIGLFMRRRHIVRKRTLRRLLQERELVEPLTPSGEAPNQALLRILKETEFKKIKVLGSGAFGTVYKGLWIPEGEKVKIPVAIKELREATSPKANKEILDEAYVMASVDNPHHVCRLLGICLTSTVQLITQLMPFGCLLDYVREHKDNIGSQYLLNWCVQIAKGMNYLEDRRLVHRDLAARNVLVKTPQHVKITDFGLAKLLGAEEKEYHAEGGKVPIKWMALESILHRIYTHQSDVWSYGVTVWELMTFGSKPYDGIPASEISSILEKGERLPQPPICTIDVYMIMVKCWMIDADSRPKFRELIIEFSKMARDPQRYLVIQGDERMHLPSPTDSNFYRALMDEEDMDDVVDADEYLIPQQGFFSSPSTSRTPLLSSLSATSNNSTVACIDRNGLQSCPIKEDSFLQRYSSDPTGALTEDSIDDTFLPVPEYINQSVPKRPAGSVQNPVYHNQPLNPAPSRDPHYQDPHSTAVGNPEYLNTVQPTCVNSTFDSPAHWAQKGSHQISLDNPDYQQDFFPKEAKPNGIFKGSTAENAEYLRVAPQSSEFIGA
T3 sequence (P00533 with tags, fused parts or gaps INS770SVD): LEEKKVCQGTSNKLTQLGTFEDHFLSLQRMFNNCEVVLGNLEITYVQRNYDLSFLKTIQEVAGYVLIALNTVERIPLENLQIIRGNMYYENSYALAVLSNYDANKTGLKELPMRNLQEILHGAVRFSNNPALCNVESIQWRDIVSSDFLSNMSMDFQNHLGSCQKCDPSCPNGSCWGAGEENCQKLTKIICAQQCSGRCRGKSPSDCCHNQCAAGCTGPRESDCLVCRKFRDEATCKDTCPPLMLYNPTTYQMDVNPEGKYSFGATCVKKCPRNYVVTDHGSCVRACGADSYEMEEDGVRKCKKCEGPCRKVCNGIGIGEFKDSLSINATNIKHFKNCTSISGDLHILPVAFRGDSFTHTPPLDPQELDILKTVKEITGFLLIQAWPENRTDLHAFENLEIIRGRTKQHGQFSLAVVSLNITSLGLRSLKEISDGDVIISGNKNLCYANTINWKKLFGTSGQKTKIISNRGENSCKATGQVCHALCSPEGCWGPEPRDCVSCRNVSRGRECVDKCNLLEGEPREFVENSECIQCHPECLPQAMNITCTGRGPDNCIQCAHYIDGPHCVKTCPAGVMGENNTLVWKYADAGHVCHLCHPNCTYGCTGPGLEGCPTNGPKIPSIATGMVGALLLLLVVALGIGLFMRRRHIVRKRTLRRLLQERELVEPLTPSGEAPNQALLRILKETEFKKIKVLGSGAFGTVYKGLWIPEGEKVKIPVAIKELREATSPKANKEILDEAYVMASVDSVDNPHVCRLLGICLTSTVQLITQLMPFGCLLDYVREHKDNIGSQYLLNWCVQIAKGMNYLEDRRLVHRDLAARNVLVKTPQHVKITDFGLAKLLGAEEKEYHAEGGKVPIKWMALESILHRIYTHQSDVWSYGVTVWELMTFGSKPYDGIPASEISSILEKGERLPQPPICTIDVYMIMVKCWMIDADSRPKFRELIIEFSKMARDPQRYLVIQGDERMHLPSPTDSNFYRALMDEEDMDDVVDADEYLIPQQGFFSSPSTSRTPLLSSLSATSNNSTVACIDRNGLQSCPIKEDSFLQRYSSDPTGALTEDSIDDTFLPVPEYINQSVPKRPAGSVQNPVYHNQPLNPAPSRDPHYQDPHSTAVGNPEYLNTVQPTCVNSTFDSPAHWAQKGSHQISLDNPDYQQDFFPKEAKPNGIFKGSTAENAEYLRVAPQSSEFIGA
T2 sequence (P00533 with tags, fused parts or gaps INS769G/D770Y): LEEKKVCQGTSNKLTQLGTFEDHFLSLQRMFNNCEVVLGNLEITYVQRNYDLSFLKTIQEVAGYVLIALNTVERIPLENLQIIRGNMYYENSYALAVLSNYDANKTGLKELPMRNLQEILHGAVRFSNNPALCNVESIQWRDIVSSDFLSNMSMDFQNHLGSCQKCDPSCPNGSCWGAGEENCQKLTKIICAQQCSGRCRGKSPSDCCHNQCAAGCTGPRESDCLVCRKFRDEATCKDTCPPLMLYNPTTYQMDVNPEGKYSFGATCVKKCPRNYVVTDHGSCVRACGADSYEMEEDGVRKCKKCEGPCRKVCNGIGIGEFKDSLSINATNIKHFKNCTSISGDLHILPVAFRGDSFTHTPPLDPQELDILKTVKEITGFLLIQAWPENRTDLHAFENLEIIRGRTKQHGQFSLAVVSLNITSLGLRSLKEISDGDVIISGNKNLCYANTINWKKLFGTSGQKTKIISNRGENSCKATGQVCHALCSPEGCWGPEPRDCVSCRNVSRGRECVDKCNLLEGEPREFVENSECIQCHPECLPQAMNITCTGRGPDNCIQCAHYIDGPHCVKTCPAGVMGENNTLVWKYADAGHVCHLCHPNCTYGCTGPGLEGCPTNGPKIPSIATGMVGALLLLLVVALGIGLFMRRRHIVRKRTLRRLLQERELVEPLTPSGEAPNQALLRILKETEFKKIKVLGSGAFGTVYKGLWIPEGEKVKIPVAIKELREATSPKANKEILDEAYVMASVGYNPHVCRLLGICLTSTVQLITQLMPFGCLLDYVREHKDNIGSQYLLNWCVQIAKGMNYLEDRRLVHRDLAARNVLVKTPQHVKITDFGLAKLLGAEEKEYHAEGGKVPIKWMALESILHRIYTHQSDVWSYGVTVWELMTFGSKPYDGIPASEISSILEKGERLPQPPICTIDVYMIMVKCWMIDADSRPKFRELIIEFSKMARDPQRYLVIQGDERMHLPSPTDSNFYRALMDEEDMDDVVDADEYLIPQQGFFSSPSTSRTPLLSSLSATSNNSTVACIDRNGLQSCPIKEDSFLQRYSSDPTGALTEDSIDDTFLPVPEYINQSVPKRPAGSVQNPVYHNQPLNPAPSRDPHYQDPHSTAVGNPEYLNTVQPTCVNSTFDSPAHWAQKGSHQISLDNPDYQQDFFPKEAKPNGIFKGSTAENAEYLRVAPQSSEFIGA

| Structure (SMILES) | EC50 [1] | EC50 [2] | EC50 [3] | EC50 [4] | EC50 ([5]; Table 10 key) | EC50 ([6]; Table 10 key) | EC50 ([7]; Table 10 key) | EC50 ([5]; Table 9 key) | EC50 ([6]; Table 9 key) | EC50 ([7]; Table 9 key) |
| --- | --- | --- | --- | --- | --- | --- | --- | --- | --- | --- |
| C=CC(=O)Nc1cc(Nc2ncc3cc(Oc4ccc(F)cc4F)c(=O)n(C)c3n2)cnc1N(C)CCN(C)C [Compound 113] | < 200 nM | < 200 nM | < 200 nM | 600 to 1000 nM | < 200 nM | < 200 nM | < 200 nM |  |  |  |
| C=CC(=O)Nc1cc(Nc2ncc3cc(Oc4cc(F)c(F)cc4F)c(=O)n(C)c3n2)c(OC)cc1N(C)CCN(C)C [Compound 135] | < 200 nM | < 200 nM | < 200 nM | 200 to 600 nM | < 200 nM | < 200 nM | < 200 nM |  |  |  |
| C=CC(=O)Nc1cc(Nc2ncc3cc(Oc4ccc(F)cc4Cl)c(=O)n(C)c3n2)c(OC)cc1N(C)CCN(C)C [Compound 134] | < 200 nM | < 200 nM | < 200 nM | 200 to 600 nM | < 200 nM | < 200 nM | < 200 nM |  |  |  |
| C=CC(=O)N1C[C@H](Cn2c(=O)c(Oc3ccc(F)cc3F)cc3cnc(Nc4cnn(C)c4)nc32)[C@@H](OC)C1 [Compound 102] | < 200 nM | < 200 nM | < 200 nM | 200 to 600 nM | < 200 nM | < 200 nM | < 200 nM |  |  |  |
| C=CC(=O)Nc1cccc(-n2c(=O)c(Oc3ccc(F)cc3F)cc3cnc(N)nc32)c1 [Compound 106] | < 200 nM | < 200 nM | < 200 nM | 200 to 600 nM | < 200 nM | < 200 nM | < 200 nM |  |  |  |
| C=CC(=O)Nc1cc(Nc2ncc3cc(Nc4ccc(F)cc4F)c(=O)n(C)c3n2)c(OC)cc1OCCN(C)C [Compound 142] | < 200 nM | < 200 nM | < 200 nM | 600 to 1000 nM |  |  |  | < 100 nM | < 100 nM | 100 to 250 nM |
| CC#CC(=O)Nc1cc(Nc2ncc3cc(Oc4ccc(F)cc4F)c(=O)n(C)c3n2)c(OC)cc1N(C)CCN(C)C [Compound 125] | < 200 nM | < 200 nM | < 200 nM | 600 to 1000 nM | < 200 nM | < 200 nM | 200 to 600 nM |  |  |  |
| C=CC(=O)Nc1cc(Nc2ncc3cc(Oc4ccc(C)cc4)c(=O)n(C)c3n2)c(OC)cc1N(C)CCN(C)C [Compound 131] | < 200 nM |  | < 200 nM | 200 to 600 nM | < 200 nM | < 200 nM | < 200 nM |  |  |  |
| C=CC(=O)Nc1cc(Nc2ncc3cc(Oc4ccc(F)cc4F)c(=O)n(C)c3n2)c(OC)cc1C1CCN(C)CC1 [Compound 128] | 200 to 600 nM |  | 600 to 1000 nM |  | 200 to 600 nM | < 200 nM |  |  |  |  |
| C=CC(=O)Nc1cc(Nc2ncc3cc(Oc4ccc(F)cc4F)c(=O)n(C)c3n2)c(OC)cc1C1CCNCC1 [Compound 127] | > 1000 nM |  | > 1000 nM |  | > 1000 nM | > 1000 nM |  |  |  |  |
| C=CC(=O)Nc1cc(Nc2ncc3cc(Oc4ccc(F)cc4F)c(=O)[nH]c3n2)c(OC)cc1N(C)CCN(C)C [Compound 99] | < 200 nM | < 200 nM | < 200 nM | 200 to 600 nM | < 200 nM | < 200 nM | < 200 nM |  |  |  |
| C=CC(=O)Nc1cc(Nc2ncc3cc(Oc4c(F)cc(F)cc4F)c(=O)n(C)c3n2)c(OC)cc1N(C)CCN(C)C [Compound 136] | < 200 nM | < 200 nM | < 200 nM | 200 to 600 nM | < 200 nM | < 200 nM | < 200 nM |  |  |  |
| C=CC(=O)Nc1cc(Nc2ncc3cc(Oc4ccc(F)cc4)c(=O)n(C)c3n2)ccc1N(C)CCN(C)C [Compound 129] | < 200 nM |  | 200 to 600 nM | > 1000 nM | < 200 nM | < 200 nM | 600 to 1000 nM |  |  |  |
| CCC(=O)Nc1cc(Nc2ncc3cc(Oc4ccc(F)cc4F)c(=O)n(C)c3n2)c(OC)cc1N(C)CCN(C)C [Compound 111] | > 1000 nM | > 1000 nM | > 1000 nM | > 1000 nM | > 1000 nM | > 1000 nM | > 1000 nM |  |  |  |
| C=CC(=O)N1C[C@H](Cn2c(=O)c(Oc3ccc(F)cc3F)cc3cnc(N)nc32)[C@@H](OC)C1 [Compound 110] | 200 to 600 nM |  | < 200 nM |  | < 200 nM | < 200 nM |  |  |  |  |
| C=CC(=O)N1C[C@H](Cn2c(=O)c(Oc3ccc(F)cc3F)cc3cnc(NC(C)=O)nc32)[C@@H](OC)C1 [Compound 112] | < 200 nM |  | < 200 nM |  | 200 to 600 nM | 200 to 600 nM |  |  |  |  |
| C=CC(=O)Nc1cccc(-n2c(=O)c(Oc3ccc(Cl)cc3F)cc3cnc(Nc4cnn(C)c4)nc32)c1 [Compound 89] | < 200 nM |  | < 200 nM | 200 to 600 nM | < 200 nM | < 200 nM | < 200 nM |  |  |  |
| C=CC(=O)Nc1cc(Nc2ncc3cc(Oc4ccc(F)c(Cl)c4)c(=O)n(C)c3n2)c(OC)cc1N(C)CCN(C)C [Compound 137] |  |  |  |  | < 200 nM | < 200 nM | < 200 nM |  |  |  |
| C=CC(=O)Nc1cc(Nc2ncc3cc(Oc4ccc(F)cc4F)c(=O)n(C)c3n2)ncc1N(C)CCN(C)C [Compound 105] | 200 to 600 nM | > 1000 nM | > 1000 nM | > 1000 nM | 200 to 600 nM | 600 to 1000 nM | 600 to 1000 nM |  |  |  |
| C=CC(=O)Nc1cc(Nc2ncc3cc(Oc4ccccc4)c(=O)n(C)c3n2)c(OC)cc1N(C)CCN(C)C [Compound 132] | < 200 nM |  | < 200 nM | < 200 nM | < 200 nM | < 200 nM | < 200 nM |  |  |  |
| C=CC(=O)Nc1cccc(-n2c(=O)c(Oc3c(F)cc(F)cc3F)cc3cnc(Nc4cnn(C)c4)nc32)c1 [Compound 82] | < 200 nM | < 200 nM | < 200 nM | < 200 nM | < 200 nM | < 200 nM | < 200 nM |  |  |  |
| C=CC(=O)Nc1cccc(-n2c(=O)c(Oc3ccc(F)c(Cl)c3)cc3cnc(Nc4cnn(C)c4)nc32)c1 [Compound 88] | < 200 nM |  | < 200 nM | 200 to 600 nM | < 200 nM | < 200 nM | 200 to 600 nM |  |  |  |
| C=CC(=O)Nc1cc(Nc2ncc3cc(Oc4ccc(F)cc4)c(=O)n(C)c3n2)c(OC)cc1N(C)CCN(C)C [Compound 130] | < 200 nM |  | < 200 nM | < 200 nM | < 200 nM | < 200 nM | < 200 nM |  |  |  |
| C=CC(=O)Nc1cccc(-n2c(=O)c(Oc3cc(F)c(F)cc3F)cc3cnc(Nc4cnn(C)c4)nc32)c1 [Compound 87] | < 200 nM |  | < 200 nM | 600 to 1000 nM | < 200 nM | < 200 nM | < 200 nM |  |  |  |
| C=CC(=O)Nc1cc(Nc2ncc3cc(Oc4ccc(F)cc4F)c(=O)n(C)c3n2)ccc1N(C)CCN(C)C [Compound 116] | < 200 nM |  | < 200 nM | < 200 nM | < 200 nM | < 200 nM | < 200 nM |  |  |  |
| C=CC(=O)Nc1cc(Nc2ncc3cc(Oc4ccc(F)cc4F)c(=O)n(C)c3n2)ccc1CCCN(C)C [Compound 117] | < 200 nM |  | 200 to 600 nM | > 1000 nM | < 200 nM | < 200 nM | 200 to 600 nM |  |  |  |

Reference: US11945816B2, “Inhibitors of EGFR and/or HER2 and methods of use” (Dana-Farber Cancer Institute, Inc., priority 2017, dated 2024)
